Assay results reported in the supplement of paper PMC10307832.

Key:
Assay in all cases: relative viability (nuclei count vs DMSO), 5 days (fraction); higher = more cells survive
[1] = system: HCC-827
Summary of the method: (§1)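 Relative viability divides the nuclei count in treated wells by that in vehicle wells. Lung cancer cell lines were seeded in 1536-well plates, dosed by pin tool the next day, and fixed and stained after 5 days in one step with final 0.05% Triton X-100, 1% formaldehyde and 1 ug/ml Hoechst. Dosing was a single drug or a fixed anchor-drug dose plus five library-drug doses (not always all listed) in √10 steps, and values are medians of duplicate plates imaged at 4×.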

[2] = system: NCI-H2126
Summary of the method: as §1

[3] = system: NCI-H1395
Summary of the method: as §1

[4] = system: LXF-289
Summary of the method: as §1

[5] = system: NCI-H650
Summary of the method: as §1

[6] = system: NCI-H2170
Summary of the method: as §1

[7] = system: NCI-H647
Summary of the method: as §1

[8] = system: NCI-H2347
Summary of the method: as §1

[9] = system: NCI-H358
Summary of the method: as §1

[10] = system: RERF-LC-KJ
Summary of the method: as §1

[11] = system: NCI-H23
Summary of the method: as §1

[12] = system: SW 900
Summary of the method: as §1

[13] = system: LCLC-103H
Summary of the method: as §1

[14] = system: PC-3 [JPC-3]
Summary of the method: as §1

[15] = system: NCI-H441
Summary of the method: as §1

[16] = system: LOU-NH91
Summary of the method: as §1

[17] = system: NCI-H596
Summary of the method: as §1

[18] = system: NCI-H1793
Summary of the method: as §1

[19] = system: ChaGo-K-1
Summary of the method: as §1

[20] = system: NCI-H322M
Summary of the method: as §1

[21] = system: HOP-62
Summary of the method: as §1

[22] = system: EPLC-272H
Summary of the method: as §1

[23] = system: NCI-H1651
Summary of the method: as §1

[24] = system: NCI-H1755
Summary of the method: as §1

What does the source list for `Nc1cccc2c1CN(C1CCC(=O)NC1=O)C2=O` (stereo not given) [Lenalidomide] + Nc1ncn([C@H]2C[C@H](O)[C@@H](CO)O2)c(=O)n1 [Decitabine] (partner 2 µM)?
relative viability ([1]; first compound 0.253 µM): 0.336; relative viability ([1]; first compound 0.8 µM): 0.284; relative viability ([1]; first compound 2.53 µM): 0.348; relative viability ([1]; first compound 8 µM): 0.35; relative viability ([2]; first compound 0.253 µM): 0.645; relative viability ([2]; first compound 0.8 µM): 0.611; relative viability ([2]; first compound 2.53 µM): 0.578; relative viability ([2]; first compound 8 µM): 0.516; relative viability ([3]; first compound 0.253 µM): 0.763; relative viability ([3]; first compound 2.53 µM): 0.743; relative viability ([3]; first compound 8 µM): 0.703; relative viability ([4]; first compound 0.253 µM): 0.388; relative viability ([4]; first compound 0.8 µM): 0.351; relative viability ([4]; first compound 2.53 µM): 0.393; relative viability ([4]; first compound 8 µM): 0.335; relative viability ([5]; first compound 0.253 µM): 0.312; relative viability ([5]; first compound 0.8 µM): 0.349; relative viability ([5]; first compound 2.53 µM): 0.351; relative viability ([5]; first compound 8 µM): 0.332; relative viability ([6]; first compound 0.253 µM): 0.49; relative viability ([6]; first compound 0.8 µM): 0.429; relative viability ([6]; first compound 2.53 µM): 0.469; relative viability ([6]; first compound 8 µM): 0.471; relative viability ([7]; first compound 0.253 µM): 0.426; relative viability ([7]; first compound 0.8 µM): 0.318; relative viability ([7]; first compound 2.53 µM): 0.428; relative viability ([7]; first compound 8 µM): 0.446; relative viability ([8]; first compound 0.253 µM): 0.616; relative viability ([8]; first compound 0.8 µM): 0.617; relative viability ([8]; first compound 2.53 µM): 0.624; relative viability ([8]; first compound 8 µM): 0.566; relative viability ([9]; first compound 0.8 µM): 0.228; relative viability ([9]; first compound 2.53 µM): 0.232; relative viability ([9]; first compound 8 µM): 0.22; relative viability ([10]; first compound 0.253 µM): 0.717; relative viability ([10]; first compound 0.8 µM): 0.655; relative viability ([10]; first compound 2.53 µM): 0.65; relative viability ([10]; first compound 8 µM): 0.774; relative viability ([11]; first compound 0.253 µM): 0.302; relative viability ([11]; first compound 2.53 µM): 0.315; relative viability ([11]; first compound 8 µM): 0.305; relative viability ([12]; first compound 2.53 µM): 0.51; relative viability ([12]; first compound 8 µM): 0.532; relative viability ([13]; first compound 0.253 µM): 0.72; relative viability ([13]; first compound 0.8 µM): 0.664; relative viability ([13]; first compound 2.53 µM): 0.73; relative viability ([13]; first compound 8 µM): 0.651; relative viability ([14]; first compound 0.253 µM): 0.848; relative viability ([14]; first compound 0.8 µM): 0.807; relative viability ([14]; first compound 2.53 µM): 0.874; relative viability ([14]; first compound 8 µM): 0.878; relative viability ([15]; first compound 0.253 µM): 0.233; relative viability ([15]; first compound 0.8 µM): 0.229; relative viability ([15]; first compound 2.53 µM): 0.264; relative viability ([15]; first compound 8 µM): 0.262; relative viability ([16]; first compound 0.253 µM): 0.815; relative viability ([16]; first compound 0.8 µM): 0.826; relative viability ([16]; first compound 2.53 µM): 0.831; relative viability ([16]; first compound 8 µM): 0.765; relative viability ([17]; first compound 0.253 µM): 0.85; relative viability ([17]; first compound 0.8 µM): 1.46; relative viability ([17]; first compound 2.53 µM): 1.06; relative viability ([17]; first compound 8 µM): 0.95; relative viability ([18]; first compound 0.253 µM): 0.464; relative viability ([18]; first compound 2.53 µM): 0.535; relative viability ([18]; first compound 8 µM): 0.44; relative viability ([19]; first compound 0.253 µM): 0.519; relative viability ([19]; first compound 0.8 µM): 0.551; relative viability ([19]; first compound 2.53 µM): 0.525; relative viability ([19]; first compound 8 µM): 0.538; relative viability ([20]; first compound 0.253 µM): 0.702; relative viability ([20]; first compound 0.8 µM): 0.78; relative viability ([20]; first compound 2.53 µM): 0.725; relative viability ([20]; first compound 8 µM): 0.688; relative viability ([21]; first compound 0.253 µM): 0.264; relative viability ([21]; first compound 0.8 µM): 0.239; relative viability ([21]; first compound 2.53 µM): 0.224; relative viability ([21]; first compound 8 µM): 0.212; relative viability ([22]; first compound 0.253 µM): 0.382; relative viability ([22]; first compound 0.8 µM): 0.381; relative viability ([22]; first compound 2.53 µM): 0.413; relative viability ([22]; first compound 8 µM): 0.32; relative viability ([23]; first compound 0.253 µM): 0.631; relative viability ([23]; first compound 0.8 µM): 0.5; relative viability ([23]; first compound 2.53 µM): 0.645; relative viability ([23]; first compound 8 µM): 0.582; relative viability ([24]; first compound 0.253 µM): 0.763; relative viability ([24]; first compound 0.8 µM): 0.687; relative viability ([24]; first compound 2.53 µM): 0.712; relative viability ([24]; first compound 8 µM): 0.688
